The results in this text go back to BindingDB's records for doi:10.1124/mol.107.035832 (Nih, 2007).

The IC50 is the concentration needed to halve the response being measured.

Some results are limits rather than exact numbers.

The target in the first test is T1, Serine/threonine-protein kinase Chk2 [209-531,Q209M] (Homo sapiens, UniProt O96017, Q209M).
T1 construct: 209-531
T1 sequence (O96017 209-531 Q209M): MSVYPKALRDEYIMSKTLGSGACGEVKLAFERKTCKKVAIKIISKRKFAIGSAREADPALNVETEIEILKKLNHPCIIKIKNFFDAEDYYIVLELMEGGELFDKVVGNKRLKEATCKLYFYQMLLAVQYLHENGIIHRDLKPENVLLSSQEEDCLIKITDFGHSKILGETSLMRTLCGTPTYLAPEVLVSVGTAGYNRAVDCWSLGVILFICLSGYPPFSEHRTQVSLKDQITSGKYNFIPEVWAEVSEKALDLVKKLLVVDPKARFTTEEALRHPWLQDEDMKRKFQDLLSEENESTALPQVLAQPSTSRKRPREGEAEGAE
The experiment in a line: IMAP High-Throughput Screening. The settings on record: pH 7.2; 23 °C. How it is done:
The IMAP Screening Express Kit (Molecular Devices, Sunnyvale, CA) was used for the high-throughput screening experiments. Compounds from the Developmental Therapeutics Program (DTP) Open Repository were solubilized and diluted in DMSO and initially tested at one concentration in the assay. Active compounds were subsequently titrated at 20 2-fold dilutions. Reactions were performed using recombinant Chk2 with the indicated drug concentrations in reaction buffer in 384-well black microplate (Greiner Bio-One, Longwood, FL)] for 60 min at room temperature. IMAP binding reagent was added to each well, plates were incubated for 30 min at room temperature, and fluorescence polarization was measured using a Tecan Ultra plate reader. Each screening plate contained staurosporine as a positive control.
On to `CC(=NN=C(N)N)c1ccc(C(C)=NN=C(N)N)cc1` [NSC 67931], for which the 50% inhibitory concentration (IC50) was more than 20 µM.

In turn, `CC(C=NNC(=N)N)=NNC(=N)N` [NSC 69432 (MGBG)] yielded an IC50 of more than 20 µM. `CC(=NN=C(N)N)c1ccc(NC(=S)Nc2ccccc2)cc1` [NSC 177940] displayed an IC50 of more than 20 µM. Compound `CC(=NN=C(N)N)c1cccc(NC(=S)Nc2cccc(C(C)=NN=C(N)N)c2)c1` [NSC 177941] had an IC50 of more than 20 µM. The compound `CC(=NN=C(N)N)c1cccc(NC(=O)Nc2cccc(C(C)=NN=C(N)N)c2)c1` [NSC 177944] came in with a 50% inhibitory concentration (IC50) of more than 20 µM.

Regarding `CNC(=O)Nc1ccc(C(C)=NNC(N)=S)cc1` [NSC 377844], the IC50 was more than 20 µM.

The compound `CC(=NN=C(N)N)c1ccc(NC(=O)Nc2ccc(C(C)=NN=C(N)N)cc2)cc1` [diacetyldiphenylurea bisguanylhydrazone] gave an IC50 of 0.2 µM.

In a further test the target is T1, Serine/threonine-protein kinase Chk2 [209-531,Q209M]. The experiment in a line: In Vitro Protein Kinase Assay. As to conditions: pH 7.5; 30 °C. How it is done:
Recombinant Chk2 was incubated with either histone H1 (or GST-Cdc25C) in reaction buffer, and incubated at 30 deg C for indicated times. For the drug inhibition experiments, samples were coincubated with drug during the reactions. Reactions were stopped by adding sample buffer, and samples were boiled for 5 min. Reaction products were separated by 4-20% SDS-PAGE. Chk2 protein kinase activity, measured as 32P incorporation into Chk2, histone H1 (or GST-Cdc25C), was determined using a PhosphorImager (GE Healthcare, Chalfont St. Giles, Buckinghamshire, UK). Densitometry was performed using Image-Quant.
Turning to `NC1=NC(=O)C(=C2CCNC(=O)c3[nH]ccc32)N1` [B722657K110], inhibition was half-maximal at 420 nM (IC50). `CC(=NN=C(N)N)c1ccc(NC(=O)Nc2ccc(C(C)=NN=C(N)N)cc2)cc1` [diacetyldiphenylurea bisguanylhydrazone] registered a half-inhibitory concentration (IC50) of 240 nM.
